One compound from patent publication US9737525B2, “Small molecule activators of NRF2 pathway” (The General Hospital Corporation, priority 2013, dated 2017) can be followed below.

Each structure is given as a SMILES string.

One assay deals with EGFP-NRF2. As to the kind of experiment: Live-cell imaging of HEK293 cells expressing EGFP-NRF2 and KEAP1-mCherry. It is filed as cell-based, human. The following applies: 1 μM for 1 hr. Here is the method: To examine the effect of MIND4-17 on the stabilization and sub-cellular localization of NRF2 in live cells, HEK293 cells (200,000 per dish) grown in α-MEM supplemented with 10% heat-inactivated FBS on 6-cm glass dishes, were co-transfected with constructs encoding EGFP-NRF2 and KEAP1-mCherry using Lipofectamine 2000 (Invitrogen) as described [Baird, 2013]. Cells were imaged 24 hr post-transfection before and after 1 hr-exposure to 1 μM MIND4-17. All images were acquired by confocal microscopy using a laser-scanning confocal microscope (LSM780; Carl Zeiss). The microscope was equipped with a thermostated chamber suitable to maintain the live cells and optics at constant 37° C. Imaging was performed using a 63× oil immersion NA 1.4 Plan-Apochromat objective from Zeiss.

For assay [1], the system named is ARE genes Nqo1, Hmox1, Gclc. As to the kind of experiment: qPCR of ARE target genes in corticostriatal co-cultures. The class given is cell-based, mouse. The following applies: 6 hr. Here is the method: Primary corticostriatal neuronal co-cultures were prepared from E18 mouse brains as previously described [Kaltenbach, 2010]. Mice were maintained in accordance with Duke University Medical Center Institutional Animal Care and Use Committee guidelines. For 5×-ARE-luciferase reporter assays, neurons were transfected following their isolation (Nucleofector, Lonza) with 2.5 μg Cignal Antioxidant Response Reporter dual luciferase plasmids (Qiagen/SABiosciences) and plated onto pre-established glial beds in 96 well plates. After 4 days in culture at 37° C. under 5% CO2, co-cultures were treated with the indicated compounds for 4 hr or 16 hr then harvested and read for luminescence from firefly and Renilla luciferases according to the Dual Glo luciferase protocol (Promega) using a SpectraMaxL luminometer (Molecular Devices). Each sample was measured in technical triplicate. For quantitative RT-PCR (qPCR) of ARE target genes, corticostriatal co-cultures were prepared as described above and, after 4 days in culture, treated for 6 hr with the indicated compounds followed by RNA harvesting according to the Absolutely RNA miniprep protocol (Agilent Technologies). Purified RNA was converted to cDNA using random hexamers and SuperScript First-Strand RT-PCR Synthesis (Invitrogen). […] Ct values were determined using primer sets against ARE genes Hmox1, Gclc and Nqo1]. […]
(In general: Real-time PCR tracks product formation cycle by cycle.)

Regarding `O=[N+]([O-])c1ccc(Sc2nnc(COc3ccccc3)n2-c2ccccc2)nc1` [MIND4-17], in the assay on EGFP-NRF2, the “Stabilization and sub-cellular localization of NRF2” value is “stabilization and nuclear translocation of EGFP-NRF2”. In assay [1], the “Expression of ARE genes Nqo1, Hmox1” value is “increased the expression of the canonical ARE genes Nqo1, Hmox1” and the “Expression of Gcic” value is approximately 2 fold.
